Experimental data from ChEMBL document CHEMBL1148246, “Differential modulation of the antifungal activity of amphotericin B by natural and ent-cholesterol” (2004).
“And” between values parts separate entries of the source, which are not always exact repeats. Equal entries are not always repeated.

What was measured:
Type in all cases: functional
Candida albicans [1] = experiment: Reduction in antifungal activity of amphotericine B was determined against Candida albicans after addition of 60 ppm of cholesterol to the culture
Candida albicans [2] = experiment: Reduction in antifungal activity of amphotericine B was determined against Candida albicans after addition of 60 ppm of compound to the culture
Candida albicans [3] = experiment: Residual antifungal activity of amphotericine B was determined against Candida albicans after addition of 60 ppm of cholesterol to the culture
Candida albicans [4] = experiment: Residual antifungal activity of amphotericine B was determined against Candida albicans after addition of 30 ppm of ent-cholesterol to the culture; (Range 14-24 mm)

**Q.** How did the Antifungal activity (Candida albicans [1]) turn out when C[C@@H]1[C@H](O)[C@@H](C)/C=C/C=C/C=C/C=C/C=C/C=C/C=C/[C@H](O[C@@H]2O[C@H](C)[C@@H](O)[C@H](N)[C@@H]2O)C[C@@H]2O[C@](O)(C[C@@H](O)C[C@@H](O)[C@H](O)CC[C@@H](O)C[C@@H](O)CC(=O)O[C@H]1C)C[C@H](O)[C@H]2C(=O)O [AMPHOTERICIN B] was run?
**A.** 82%

**Q.** And the Antifungal activity (Candida albicans [2])?
**A.** 76% and 62%

**Q.** What about the Antifungal activity (Candida albicans [3]) of the same molecule?
**A.** 73%

**Q.** And the Antifungal activity (Candida albicans [4])?
**A.** 87%
